Source: patent US20230096663A1, “FARNESOID X RECEPTOR MODULATING COMPOUNDS AND METHODS OF USING THE SAME” (Inorbit Therapeutics AB, priority 2020, published 2023)
Read-outs that look alike come from different tables or passages of the source.

Legend:
[1] = Compound exposure in plasma and liver of HFHC fed male mice; assay type: in vivo; details: C57BL/6J, mouse, oral
[2] = system: HFHC fed male C57BL/6 mice; test: In-vivo efficacy in high fat high cholesterol diet (HFHC) fed male C57BL/6 mice; details: oral, 3 mg/kg BID, 3 mg/kg QD and 10 mg/kg BID, after 28 days
Experimental: C57BL/6J male mice were purchased at the age of 8 weeks. After an acclimation period of 1 week, animals were maintained on high fat high cholesterol diet (Research diets) with 60% kcal from fat plus 0.5% (w/w) extra cholesterol (Research diet, D02051401) for a period of 4 weeks. Age matched control animals (n=6) were maintained on normal chow. Mice were dosed with vehicle, test compounds and GW4064 morning (7.00 AM) and evening (5:00 PM) from day 0 to 27. At 28th day, animals were dosed at 7:00 AM and kept on fasting for next 4 hours before blood and tissues collection. Plasma samples separated from collected blood were stored at −20° C. immediately for estimation analysis. The samples were analyzed using the Siemens Dimension RxL Max Clinical chemistry analyzer.
Right liver lobe was used for the test compounds exposure, triglyceride and cholesterol estimation. Liver tissues were dissected, weighed and snap frozen and stored at −80° C. for further analysis of hepatic triglyceride, cholesterol and compound exposure. In brief, stored tissues were thawed to room temperature and triglycerides were extracted by homogenizing 25 mg of liver tissues in 1 ml of 5% Triton X100 (Lot No. 61K01741-Sigma Aldrich) in water. Homogenized tissues were slowly heated to 80° C. in water bath for 5 minutes. The samples were cooled down and again heated to solubilize all the triglycerides into solution. The samples were centrifuged for 5 minutes at 4000 RPM and supernatant was collected for quantification^3 using commercially available kit from ERBA (Lot No. B061832).
Homogenized samples were centrifuge at 13000 g for 10 minutes to remove insoluble material. The organic phase was separated into new tube and air dried at 50° C. to remove chloroform. Thereafter, samples were vacuumed for 30 minutes to remove residue organic solvent. Dried lipids were dissolved in 200 μL of cholesterol assay buffer (provided with Sigma cholesterol assay kit Lot No. B2J210603V), sonicated for 20 minutes and vortexed until mixture was homogenous as mentioned in kit protocol. Samples were diluted with cholesterol assay buffer at (1:10) ratio to fit in standard curve and finally 50 μL of diluted samples were used for the assay.
Compound levels were also measured in the plasma and liver to understand its distribution profile.

[3] = system: FXR related genes (BSEP, SHP) in primary human hepatocytes; test: Gene expression in human primary hepatocytes (BSEP, SHP); assay type: cell-based; details: 24 hours incubation
Experimental: The test compound was dissolved in buffer to give a 10 mM stock solution. The compound was serially diluted to the desired concentrations and then incubated with human primary hepatocytes for 24 hours at 37° C. in a CO2 incubator. After incubation, the media was removed and the RNA harvested using the Trizol-CHCl3 method and quantified using Nano drop. The RNA was then Reverse Transcribed to cDNA using a superscript vilo cDNA synthesis kit. The cDNA with respective Taqman primers, master mix are then amplified using quantitative RT-PCR system. […] The compounds of examples 2 and 3 upregulate FXR related and disease relevant genes on incubation with primary human hepatocytes. […] It is a uni-directional, ATP-dependent efflux transporter that plays an important role in the elimination of bile salts from the hepatocyte into the bile canaliculi for export into the gastrointestinal tract. FXR also induces the expression of small heterodimer partner (SHP) which controls a complex set of genes in multiple metabolic pathways. It reduces the expression of CYP7A1, a liver-specific enzyme that catalyzes the first and rate-limiting step in one of the two pathways for bile acid biosynthesis.

SMILES: Cc1cc(S(=O)[O-])cc2sc(N3[C@@H]4CC[C@H]3C[C@@H](OCc3c(-c5ccccc5OC(F)(F)F)noc3C3CC3)C4)nc12.[Na+] [Example 3, Sodium 2-(3-((5-cyclopropyl-3-(2-(trifluoromethoxy)phenyl)isoxazol-4-yl)methoxy)-8-azabicyclo[3.2.1]octan-8-yl)-4-methylbenzo[d]thiazole-6-sulfinate]
- concentration at 4 h ([1]; liver, 3 mg/kg, 3 mg/kg BID oral, 4 hours after last dose on day 28, read-out: Mean compound exposure, Liver): 88.9 ng/g
- concentration at 4 h ([1]; liver, 10 mg/kg, 10 mg/kg BID oral, 4 hours after last dose on day 28, read-out: Mean compound exposure, Liver): 198 ng/g
- concentration at 4 h ([1]; liver, 10 mg/kg, 10 mg/kg QD oral, 4 hours after last dose on day 28, read-out: Mean compound exposure, Liver): 176 ng/g
- concentration at 4 h ([1]; plasma, 3 mg/kg, 3 mg/kg BID oral, 4 hours after last dose on day 28, read-out: Mean compound exposure, Plasma): 3.7 ng/mL
- concentration at 4 h ([1]; plasma, 10 mg/kg, 10 mg/kg BID oral, 4 hours after last dose on day 28, read-out: Mean compound exposure, Plasma): 11.5 ng/mL
- concentration at 4 h ([1]; plasma, 10 mg/kg, 10 mg/kg QD oral, 4 hours after last dose on day 28, read-out: Mean compound exposure, Plasma): 5.9 ng/mL
- Cholesterol levels in the liver [2]: reductions
- Cholesterol levels in the plasma [2]: reductions
- Liver triglycerides [2]: reductions
- Expression of FXR related and disease relevant genes (BSEP, SHP) [3]: upregulate
